From patent publication US8859598B2, “1, 2, 4-oxadiazoles azetidine derivatives as sphingosine-1 phosphate receptors modulators” (Allergan, Inc., priority 2012, dated 2014) come the findings set out here.

This assay addresses T1, human S1P1 receptor (Homo sapiens, UniProt P21453).
T1 construct: expressed in transfected cells; membranes used
The experiment in a line: GTP γ35S binding assay for S1P1 activity. Type of assay: biochemical. The following applies: membranes of cells stably expressing the S1P1 receptor, test concentrations 0.08 to 5,000 nM. The protocol: Compounds were synthesized and tested for S1P1 activity using the GTP γ^35S binding assay. These compounds may be assessed for their ability to activate or block activation of the human S1P1 receptor in cells stably expressing the S1P1 receptor.
GTP γ^35S binding was measured in the medium containing (mM) HEPES 25, pH 7.4, MgCl2 10, NaCl 100, dithitothreitol 0.5, digitonin 0.003%, 0.2 nM GTP γ^35S, and 5 μg membrane protein in a volume of 150 μl. Test compounds were included in the concentration range from 0.08 to 5,000 nM unless indicated otherwise. Membranes were incubated with 100 μM 5′-adenylylimmidodiphosphate for 30 min, and subsequently with 10 μM GDP for 10 min on ice. Drug solutions and membrane were mixed, and then reactions were initiated by adding GTP γ^35S and continued for 30 min at 25° C. Reaction mixtures were filtered over Whatman GF/B filters under vacuum, and washed three times with 3 mL of ice-cold buffer (HEPES 25, pH7.4, MgCl2 10 and NaCl 100). Filters were dried and mixed with scintillant, and counted for ^35S activity using a β-counter. Agonist-induced GTP γ^35S binding was obtained by subtracting that in the absence of agonist. Binding data were analyzed using a non-linear regression method. In case of antagonist assay, the reaction mixture contained 10 nM […] in the presence of test antagonist at concentrations ranging from 0.08 to 5000 nM.

T1 sequence (P21453 whole entry): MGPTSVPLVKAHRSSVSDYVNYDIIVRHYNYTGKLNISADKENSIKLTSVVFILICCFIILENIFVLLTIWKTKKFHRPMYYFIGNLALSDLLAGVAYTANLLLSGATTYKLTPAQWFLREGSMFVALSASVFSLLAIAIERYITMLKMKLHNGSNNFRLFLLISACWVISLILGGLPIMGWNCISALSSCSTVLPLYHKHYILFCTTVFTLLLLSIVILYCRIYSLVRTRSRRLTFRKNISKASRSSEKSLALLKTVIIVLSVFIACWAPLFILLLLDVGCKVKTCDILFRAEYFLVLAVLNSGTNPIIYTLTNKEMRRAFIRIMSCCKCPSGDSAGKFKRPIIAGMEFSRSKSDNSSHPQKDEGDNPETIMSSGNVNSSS

The term EC50 denotes the midpoint of the concentration-response curve. Low readings indicate higher potency in that assay, high ones lower potency in that assay. As for `O=C(O)C1CN(Cc2ccc(-c3noc(CCCCc4ccccc4)n3)cc2)C1` [Compound 1, 1-{4-[5-(4-Phenylbutyl)-1,2,4-oxadiazol-3-yl]benzyl}azetidine-3-carboxylic acid], the EC50 is 483 nM. This lies in the sub-micromolar range.
